For data set [1], the target named is T1, ultra large complexes (ULC) between PF4 tetramers and heparin (Homo sapiens, UniProt P02776).
T1 construct: platelet factor 4 which is a 70 amino acid, lysine-rich, 7.8 kDa platelet-specific protein
T1 sequence (P02776 32-101): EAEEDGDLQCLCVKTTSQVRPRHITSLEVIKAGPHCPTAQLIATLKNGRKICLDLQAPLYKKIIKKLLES
Briefly: Inhibition of formation of ultra large complexes (ULC) of PF4 tetramers and heparin. It counts as biochemical. The following applies: IC50 values are +/−20%. How it is done: Since ULCs are formed as part of a dynamic equilibrium between heparin and PF4, dynamic light scattering (DLS) was performed to measure the ability of the exemplified compounds to disrupt preformed ULCs. Samples were analyzed and included PF4 incubated in the absence or presence of unfractionated heparin (UFH) for 20 min at room temperature at PF4 to heparin ratios (PHR) of 1:0 (no heparin), 2:1, and 0.64:1. The samples were then analyzed using photon correlation spectroscopy on a DynaPro® DLS instrument and Dynamics® software (V6.7.6; […]) to obtain correlation function. The results of the DLS analysis indicate the percentage of ULCs and small PF4 particles. Data for the small particles (a population of particles with a mean hydrodynamic diameter of about 1 nm) and data for the large particles (a population of particles with a mean hydrodynamic diameter of about 300 nm) is assessed. Data are expressed as the percent of total intensity from each measurement, the mean of 10 measurements, and representative of two such experiments.
ELISA measurement and gel filtration measurement of ULC inhibition were performed as described in International Patent Publication No. WO2013/142328, which is incorporated herein by reference. Similarly, assays in which heparin concentrations are varied to determine the effect on ULC inhibition were performed as described in that publication.
Certain compounds were evaluated for their ability to inhibit formation of ultra large complexes (ULC) between PF4 tetramers and heparin.

Data set [2] can be described thus: Cytotoxicity HepG2 (MTS reduction). In kind it is cell-based. The following applies: human, HepG2 cells; read-out: Cytotox HepG2 EC50. Background: Tetrazolium assays rely on reduction of a dye to a coloured formazan, in cell work by metabolically active cells.
Data set [3] in a line: Cytotoxicity NIH3T3 (MTS reduction). It counts as cell-based. The following applies: mouse, NIH3T3 cells, 1 hour exposure in the absence of serum, N = 3, read-out: Cytotox NIH3T3 EC50.
Data set [4] in a line: Mouse microsome stability. The following applies: Mouse microsomes, compound conc = 0.5 μM, n = 1; read-out: Mouse microsome stability Half life t1/2. It counts as in vitro ADME. The text has this: (§1) Certain exemplified compounds were examined for ADMET (absorption, distribution, metabolism, excretion and toxicity) profiling using conventional assays with the results shown in the Tables 3A-3C below.

For the next data set, the target named is T2, human PF4 (Homo sapiens, UniProt P02776).
T2 construct: PF4 is a 70 amino acid, lysine-rich 7.8 kDa platelet-specific protein; made in house; host or cells: Escherichia coli BL21DE3 pLysS (pT7-7) and/or Drosophila S2 cells
T2 sequence (P02776 32-101): T1 sequence (P02776 32-101)
Briefly: Inhibition of PF4 tetramer formation (BS3 cross-linking, SDS-PAGE). In kind it is biochemical. The note with it: for IC50: read-out: IC50 of PF4 tetramer formation inhibition; for inhibition at 5 µM: 5 μM inhibitor; for inhibition at 10 µM: 10 μM inhibitor (column A). The gist of the method:
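Recombinant human wild-type PF4 (E. coli-expressed, heparin-purified), 10 μg/ml in PBS, incubated with compound 15 min at 37° C or 60 min at room temperature, then cross-linked with 0.2 mM BS3 for 30 min at room temperature. Reducing 12% SDS-PAGE; bands quantified as % tetramer, trimer, dimer, monomer versus compound-free control.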

The nature of data set [5]: Human microsome stability. In kind it is in vitro ADME. The note with it: Human microsomes, compound conc = 0.5 μM, n = 1; read-out: Human microsome stability Half life t1/2.
Description: as §1

The test system of the next data set is human platelets. Briefly: PF4-KKO induced platelet activation, P-selectin, human platelets. In kind it is cell-based. The following applies: for PF4-KKO induced platelet activation using P-selectin as a marker: human platelet activation assays, 20 μM and 40 μM (FIGS. 8 and 9).
Data set [6] relates to FcγRIIA transgenic murine platelets. Briefly: PF4-KKO induced platelet activation, P-selectin, FcγRIIA transgenic murine platelets. In kind it is cell-based, mouse. The following applies: for normalized P-selectin levels: FIG. 22; for preventing P-selectin expression: FcγRIIA transgenic murine platelets, 50 μM compound, 37.5 μg/ml PF4, 50 μg/ml KKO (FIGS. 14-21). The procedure: Whole blood was diluted with 1× Tyrode buffer (5 mM N-2-hydroxyethylpiperazine-N′-2-ethanesulfonic acid, 0.1% BSA, 134 mM NaCl, 0.3 mM NaH2PO4, 3 mM KCl, 2 mM MgCl2, 12 mM NaHCO3, 5 mM glucose) with 0.02 U/ml apyrase and 1 μM PGE1 and centrifuged at 100 g for 10 min. Platelet rich plasma (PRP) was carefully removed and centrifuged at 1000 g for 5 min. Platelet pellet was resuspended in Tyrode buffer with 0.02 U/ml apyrase at 2×10^8/ml concentration at 37° C. PF4 antagonists are diluted in Tyrode buffer, and are incubated with 10 μg/ml human PF4 purified protein at room temperature for 30 min. The PF4-drug complex is then incubated with 1×10^8/ml platelets with 1 mM CaCl2, 0.1% BSA at 37° C. for 10 min. 40 μg/ml KKO and 10 μg/ml anti-CD62P (P-selectin) antibodies are added into the reaction. One milliliter ice-cold PBS is added to each reaction after 5 min of incubation. Labelled platelets are then analyzed by a BD Accuri C6 flow cytometer. The results are represented by both the mean fluorescence intensity and by the percentage of positive platelets.
37.5 μg/ml PF4 with/without 50 μM of the exemplified compound incubated with 3×10^7/ml platelets; 50 μg/ml KKO.

The mark [7] stands for this setting: read-out: % inhibition of PF4 tetramer formation at single concentration of inhibitor.

“Also recorded” adds a separate entry of the source.

For orientation: IC50 means the concentration at which inhibition is half-maximal. As usually defined, the EC50 is the concentration that produces a half-maximal response. On to `O=C(c1ccc2c(c1)C(=O)CC2=O)c1ccc2c(c1)C(=O)CC2=O` [Example 4, 5,5′-carbonylbis(1h-indene-1,3(2h)-dione)], for which the IC50 was 3 µM in data set [1] and 4 µM on human PF4. Moreover, the EC50 in data set [2] is more than 250 µg/mL. In addition, the EC50 at 1 h in data set [3] is more than 250 µg/mL. For the same compound, the results for the half-life at 0.5 μM in data set [4] and in data set [5] were 1.7 min and 4.7 min, respectively. Besides, the inhibition at 100 µM at human PF4 (100 μM inhibitor, read-out: % inhibition of PF4 tetramer formation at single concentration of inhibitor) is 96%.
For `CC(=O)C1(C(=O)OC(C)(C)C)C(=O)c2ccc(Oc3ccc4c(c3)C(=O)C(C(C)=O)(C(=O)OC(C)(C)C)C4=O)cc2C1=O` (stereo not shown) [Example 5, 5-(2-acetyl-2-carbo-t-butoxy-2,3-dihydro-1,3dioxo-1h-inden-6-yloxy)-2-acetyl-2-carbo-t-butoxy-2,3-dihydro-1,3-dioxo-1h-indene], the 50% inhibitory concentration (IC50) in data set [1] is 10 µM; on human PF4 it was 10.4 µM. Besides, the half-maximal effective concentration (EC50) in data set [2] is more than 3350 µg/mL. For the same compound, the 50% effective concentration (EC50) at 1 h in data set [3] is more than 3350 µg/mL.
For `CCCNC(=O)C1C(=O)c2ccc(C(=O)c3ccc4c(c3)C(=O)C(C(=O)NCCC)C4=O)cc2C1=O` (stereo not shown) [Example 15, 5,5′-carbonylbis(1,3-dioxo-indan-2-carboxylic acid propylamide)], the IC50 in data set [1] stood at 11 µM; on human PF4, 3 µM. In data set [2], the half-maximal effective concentration (EC50) is more than 1000 µg/mL. The half-maximal effective concentration (EC50) at 1 h in data set [3] is more than 1000 µg/mL. For the same compound, in the data set on human platelets, the “PF4-KKO induced platelet activation using P-selectin as a marker” value is recorded as “inhibitory”. Moreover, the “preventing PF4-KKO induced platelet activation using P-selectin as a marker” value with human platelets (human platelets (FIG. 12)) was “efficacy”. The half-life at 0.5 μM in data set [4] was determined as 93.8 min; in data set [5], 116 min. For the same compound, on human PF4 (30 μM inhibitor, read-out: % inhibition of PF4 tetramer formation at single concentration of inhibitor), the inhibition at 30 µM was 93%.
As for `O=C(c1ccc2c(c1)C(=O)C(C(=O)NCCc1ccc(F)cc1)C2=O)c1ccc2c(c1)C(=O)C(C(=O)NCCc1ccc(F)cc1)C2=O` (stereo not shown) [Example 22, 5,5′-carbonylbis(1,3-dioxo-indan-2-carboxylic acid (2-(4-fluorophenyl)ethyl)-amide)], in data set [6], the “normalized P-selectin levels” value is given as “modulate the activity of normalized P-selectin; also recorded: inhibition” and the “preventing P-selectin expression” value is “efficacy”. Further, the “PF4-KKO induced platelet activation using P-selectin as a marker” value in the data set with human platelets was “inhibitory”. Besides, the half-life at 0.5 μM in data set [4] amounted to 47.9 min. On human PF4 (setting [7]), the inhibition at 5 µM was found to be 66% and the inhibition at 10 µM stood at 76%. The IC50 at human PF4 amounted to 1.87 µM. The half-life at 0.5 μM in data set [5] came to 59.7 min.
For the compound `COc1ccccc1NC(=O)C1C(=O)c2ccc(C(=O)c3ccc4c(c3)C(=O)C(C(=O)Nc3ccccc3OC)C4=O)cc2C1=O` (stereo not shown) [Example 28, 5,5′-carbonylbis(1,3-dioxo-indan-2-carboxylic acid (2-methoxyphenyl)-amide)], in data set [6], the “normalized P-selectin levels” value is listed as “modulate the activity of normalized P-selectin; also recorded: inhibition” and the “preventing P-selectin expression” value is reported as “efficacy”. The “PF4-KKO induced platelet activation using P-selectin as a marker” value in the data set on human platelets is “inhibitory”. Further, in data set [4], the half-life at 0.5 μM is 52.2 min. Further, on human PF4 (setting [7]), the inhibition at 5 µM was determined as 82% and the inhibition at 10 µM is 65%. In addition, at human PF4, the half-maximal inhibitory concentration (IC50) came to 0.64 µM. Besides, in data set [5], the half-life at 0.5 μM is more than 180 min.
On to `O=C(O)CCNC(=O)C1C(=O)c2ccc(C(=O)c3ccc4c(c3)C(=O)C(C(=O)NCCC(=O)O)C4=O)cc2C1=O` (stereo not shown) [Example 32, 5,5′-carbonylbis(3-[(1,3-dioxo-indane-2-carbonyl)-amino]-propionic acid)], for which, in data set [6], the “normalized P-selectin levels” value is “modulate the activity of normalized P-selectin; also recorded: inhibition” and the “preventing P-selectin expression” value is recorded as “efficacy”. Also, the “PF4-KKO induced platelet activation using P-selectin as a marker” value in the data set with human platelets was “inhibitory”. The half-life at 0.5 μM in data set [4] is more than 180 min. Besides, on human PF4 (setting [7]), the inhibition at 5 µM was found to be 86% and the inhibition at 10 µM turned out to be 91%. In addition, the half-inhibitory concentration (IC50) on human PF4 is 2.99 µM. Further, the half-life at 0.5 μM in data set [5] is 54 min.
With `O=C(NC1CC1)C1C(=O)c2ccc(S(=O)(=O)c3ccc4c(c3)C(=O)C(C(=O)NC3CC3)C4=O)cc2C1=O` (stereo not shown) [Example 34, 5,5′-sulphonylbis(1,3-dioxo-indan-2-carboxylic acid (cyclopropyl)-amide)], in data set [6], the “normalized P-selectin levels” value is listed as “modulate the activity of normalized P-selectin; also recorded: inhibition” and the “preventing P-selectin expression” value is “efficacy”. For the same compound, the “PF4-KKO induced platelet activation using P-selectin as a marker” value in the data set with human platelets is given as “inhibitory”. Also, the half-life at 0.5 μM in data set [4] is 86.5 min. In addition, on human PF4 (setting [7]), the inhibition at 5 µM came to 60% and the inhibition at 10 µM is 81%. Besides, on human PF4, the concentration for half-maximal inhibition (IC50) amounted to 1.06 µM. For the same compound, the half-life at 0.5 μM in data set [5] was more than 180 min.
